How the values were obtained:
[1] = tested on: GDF8 signaling (GDF pSMAD, MPC11); test: AlphaScreen SureFire SMAD3 (p-Ser423/425) assay, inhibition of GDF8 signaling; assay type: cell-based; conditions: Mus musculus, MPC-11, inhibition of GDF8 signaling, p-SMAD3 readout
[2] = tested on: TGF-β signaling (TGF-β pSMAD, MPC-11); test: AlphaScreen SureFire SMAD3 (p-Ser423/425) assay, inhibition of TGF-β signaling; assay type: cell-based; conditions: Mus musculus, MPC-11, inhibition of TGF-β signaling, p-SMAD3 readout

| IC50 [1] [nM] | IC50 [2] [nM] | Compound |
| --- | --- | --- |
| 770 | 3420 | CCc1nc(-c2ccc(F)c(F)c2)c(-c2ccc3nccnc3c2)[nH]1 [Compound 135, 6-(4-(3,4-Difluorophenyl)-2-ethyl-1H-imidazol-5-yl)quinoxaline] |
| 750 | 2300 | CCc1nc(-c2cccc(F)c2)c(-c2ccc3ncnn3c2)[nH]1 [Compound 136, 6-(2-Ethyl-4-(3-fluorophenyl)-1H-imidazol-5-yl)-[1,2,4]triazolo[1,5-a]pyridine] |
| 570 | 2540 | CCc1nc(-c2cccc(F)c2)c(-c2ccc3ncsc3c2)[nH]1 [Compound 137, 6-(2-Ethyl-4-(3-fluorophenyl)-1H-imidazol-5-yl)benzo[d]thiazole] |
| 730 | 3260 | CCc1nc(-c2cccc(F)c2)c(-c2ccc3nccn3c2)[nH]1 [Compound 138, 6-(2-Ethyl-4-(3-fluorophenyl)-1H-imidazol-5-yl)imidazo[1,2-a]pyridine] |
| 650 | 2030 | CCc1nc(-c2cc(F)cc(Cl)c2)c(-c2ccc3[nH]ncc3c2)[nH]1 [Compound 139, 5-(4-(3-Chloro-5-fluorophenyl)-2-ethyl-1H-imidazol-5-yl)-1H-indazole] |
| 620 | 2220 | CCc1nc(-c2cc(F)cc(Cl)c2)c(-c2ccc3ncsc3c2)[nH]1 [Compound 140, 6-(4-(3-Chloro-5-fluorophenyl)-2-ethyl-1H-imidazol-5-yl)benzo[d]thiazole] |
| 660 | 2910 | CCc1nc(-c2cc(F)cc(Cl)c2)c(-c2ccc3nccnc3c2)[nH]1 [Compound 141, 6-(4-(3-Chloro-5-fluorophenyl)-2-ethyl-1H-imidazol-5-yl)quinoxaline] |
| 670 | 4390 | CCc1nc(-c2cc(C)cc(F)c2)c(-c2ccc3[nH]ncc3c2)[nH]1 [Compound 142, 5-(2-Ethyl-4-(3-fluoro-5-methylphenyl)-1H-imidazol-5-yl)-1H-indazole] |
| 450 | 3140 | CCc1nc(-c2cc(C)cc(F)c2)c(-c2ccc3cn[nH]c3c2)[nH]1 [Compound 143, 6-(2-Ethyl-4-(3-fluoro-5-methylphenyl)-1H-imidazol-5-yl)-1H-indazole] |
| 310 | 1530 | CCc1nc(-c2cc(C)cc(F)c2)c(-c2ccc3ncnn3c2)[nH]1 [Compound 144, 6-(2-Ethyl-4-(3-fluoro-5-methylphenyl)-1H-imidazol-5-yl)-[1,2,4]triazolo[1,5-a]pyridine] |
| 530 | 2950 | CCc1nc(-c2cc(C)cc(F)c2)c(-c2ccc3ncsc3c2)[nH]1 [Compound 145, 6-(2-Ethyl-4-(3-fluoro-5-methylphenyl)-1H-imidazol-5-yl)benzo[d]thiazole] |
| 1000 | 5960 | CCc1nc(-c2cc(C)cc(F)c2)c(-c2ccc3nccn3c2)[nH]1 [Compound 146, 6-(2-Ethyl-4-(3-fluoro-5-methylphenyl)-1H-imidazol-5-yl)imidazo[1,2-a]pyridine] |
| 550 | 2210 | CCc1nc(-c2cc(C)cc(F)c2)c(-c2ccc3nccnc3c2)[nH]1 [Compound 147, 6-(2-Ethyl-4-(3-fluoro-5-methylphenyl)-1H-imidazol-5-yl)quinoxaline] |
| 720 | 3220 | CCc1nc(-c2cc(F)cc(F)c2)c(-c2ccc3ncsc3c2)[nH]1 [Compound 149, 6-(4-(3,5-Difluorophenyl)-2-ethyl-1H-imidazol-5-yl)benzo[d]thiazole] |
| 350 | 850 | FC(F)(F)c1nc(-c2cccc(Cl)c2)c(-c2ccc3ncnn3c2)[nH]1 [Compound 150, 6-(4-(3-Chlorophenyl)-2-(trifluoromethyl)-1H-imidazol-5-yl)-[1,2,4]triazolo[1,5-a]pyridine] |
| 590 | 1400 | Fc1ccc(-c2nc(C(F)(F)F)[nH]c2-c2ccc3ncnn3c2)cc1 [Compound 151, 6-(4-(4-Fluorophenyl)-2-(trifluoromethyl)-1H-imidazol-5-yl)-[1,2,4]triazolo[1,5-a]pyridine] |
| 190 | 380 | Cc1cccc(-c2nc(C(C)C)[nH]c2-c2ccc3ncnn3c2)c1 [Compound 152, 6-(2-Isopropyl-4-(m-tolyl)-1H-imidazol-5-yl)-[1,2,4]triazolo[1,5-a]pyridine] |
| 22.9 | 72.4 | Cc1cc(-c2nc(N)sc2-c2ccc3nccn3c2)ccc1F [Compound 155, 4-(4-fluoro-3-methylphenyl)-5-(imidazo[1,2-a]pyridin-6-yl)thiazol-2-amine] |
| 66.3 | 218 | Nc1nc(-c2cccc(Cl)c2)c(-c2ccc3nccn3c2)s1 [Compound 164, 4-(3-chlorophenyl)-5-(imidazo[1,2-a]pyridin-6-yl)thiazol-2-amine] |
| 109 | 423 | Nc1nc(-c2cccc(C(F)(F)F)c2)c(-c2ccc3nccn3c2)s1 [Compound 171, 5-(imidazo[1,2-a]pyridin-6-yl)-4-(3-(trifluoromethyl)phenyl)thiazol-2-amine] |
| 252 | 1100 | Nc1nc(-c2cccc(F)c2)c(-c2ccc3ncsc3c2)s1 [Compound 178, 5-(benzo[d]thiazol-6-yl)-4-(3-fluorophenyl)thiazol-2-amine] |

The remaining lines, values behind:

| Compound | IC50 [1] [nM] | IC50 [2] [nM] |
| --- | --- | --- |
| Cc1nc(-c2cc(F)cc(F)c2)c(-c2ccc3[nH]ncc3c2)[nH]1 [Compound 148, 5-(4-(3,5-Difluorophenyl)-2-methyl-1H-imidazol-5-yl)-1H-indazole] | 730 | 2840 |
| Cc1cccc(-c2ncsc2-c2ccc3cn[nH]c3c2)c1 [Compound 153, 5-(1H-indazol-6-yl)-4-(m-tolyl)thiazole] | 11.3 | 207 |
| Cc1cccc(-c2ncsc2-c2ccc3[nH]ncc3c2)c1 [Compound 154, 5-(1H-indazol-5-yl)-4-(m-tolyl)thiazole] | 14.5 | 116 |
| Cc1cc(-c2ncsc2-c2ccc3[nH]ncc3c2)ccc1F [Compound 156, 4-(4-fluoro-3-methylphenyl)-5-(1H-indazol-5-yl)thiazole] | 25.3 | 134 |
| COc1ccc(-c2nc(N)sc2-c2ccc3[nH]ncc3c2)cc1 [Compound 157, 5-(1H-indazol-5-yl)-4-(4-methoxyphenyl)thiazol-2-amine] | 25.6 | 160 |
| Cc1cc(-c2nc(N)sc2-c2ccc3nccnc3c2)ccc1F [Compound 158, 4-(4-fluoro-3-methylphenyl)-5-(quinoxalin-6-yl)thiazol-2-amine] | 36 | 228 |
| Cc1cc(-c2ncsc2-c2ccc3cn[nH]c3c2)ccc1F [Compound 159, 4-(4-fluoro-3-methylphenyl)-5-(1H-indazol-6-yl)thiazole] | 36.7 | 171 |
| Cc1cc(-c2nc(N)sc2-c2ccc3[nH]ncc3c2)ccc1F [Compound 160, 4-(4-fluoro-3-methylphenyl)-5-(1H-indazol-5-yl)thiazol-2-amine] | 38.5 | 99.8 |
| Cc1cccc(-c2ncsc2-c2ccc3ncsc3c2)c1 [Compound 161, 6-(4-(m-tolyl)thiazol-5-yl)benzo[d]thiazole] | 46.8 | 427 |
| Cc1cc(-c2nc(N)sc2-c2ccc3ncsc3c2)ccc1F [Compound 162, 5-(benzo[d]thiazol-6-yl)-4-(4-fluoro-3-methylphenyl)thiazol-2-amine] | 52.3 | 127 |
| COc1ccc(-c2nc(N)sc2-c2ccc3nccn3c2)cc1 [Compound 163, 5-(imidazo[1,2-a]pyridin-6-yl)-4-(4-methoxyphenyl)thiazol-2-amine] | 54 | 168 |
| Cc1cc(-c2ncsc2-c2ccc3ncsc3c2)ccc1F [Compound 165, 6-(4-(4-fluoro-3-methylphenyl)thiazol-5-yl)benzo[d]thiazole] | 69.6 | 262 |
| Cc1cc(-c2ncsc2-c2ccc3nccn3c2)ccc1F [Compound 167, 4-(4-fluoro-3-methylphenyl)-5-(imidazo[1,2-a]pyridin-6-yl)thiazole] | 78 | 215 |
| Nc1nc(-c2cccc(Cl)c2)c(-c2ccc3[nH]ncc3c2)s1 [Compound 168, 4-(3-chlorophenyl)-5-(1H-indazol-5-yl)thiazol-2-amine] | 80 | 338 |
| Nc1nc(-c2cccc(Cl)c2)c(-c2ccc3nccnc3c2)s1 [Compound 169, 4-(3-chlorophenyl)-5-(quinoxalin-6-yl)thiazol-2-amine] | 95.1 | 236 |
| Nc1nc(-c2ccc(F)cc2)c(-c2ccc3nccnc3c2)s1 [Compound 170, 4-(4-fluorophenyl)-5-(quinoxalin-6-yl)thiazol-2-amine] | 98.6 | 656 |
| Nc1nc(-c2cccc(Cl)c2)c(-c2ccc3cn[nH]c3c2)s1 [Compound 172, 4-(3-chlorophenyl)-5-(1H-indazol-6-yl)thiazol-2-amine] | 121 | 909 |
| COc1ccc(-c2nc(N)sc2-c2ccc3cn[nH]c3c2)cc1 [Compound 173, 5-(1H-indazol-6-yl)-4-(4-methoxyphenyl)thiazol-2-amine] | 124 | 898 |
| Cc1cc(-c2nc(N)sc2-c2ccc3cn[nH]c3c2)ccc1F [Compound 174, 4-(4-fluoro-3-methylphenyl)-5-(1H-indazol-6-yl)thiazol-2-amine] | 144 | 431 |
| Nc1nc(-c2cccc(C(F)(F)F)c2)c(-c2ccc3[nH]ncc3c2)s1 [Compound 175, 5-(1H-indazol-5-yl)-4-(3-(trifluoromethyl)phenyl)thiazol-2-amine] | 154 | 938 |
| Nc1nc(-c2cccc(C(F)(F)F)c2)c(-c2ccc3ncsc3c2)s1 [Compound 176, 5-(benzo[d]thiazol-6-yl)-4-(3-(trifluoromethyl)phenyl)thiazol-2-amine] | 158 | 600 |
| COc1cccc(-c2nc(N)sc2-c2ccc3[nH]ncc3c2)c1 [Compound 177, 5-(1H-indazol-5-yl)-4-(3-methoxyphenyl)thiazol-2-amine] | 234 | 1040 |

Source: US10287295B2, “TGF-β inhibitors” (Rigel Pharmaceuticals, Inc., priority 2015, dated 2019)
